Where a SMILES comes first, the peptide text is derived from it. [ ]: non-standard residue; d: D form. dPhe(4-Cl) = N[C@H](Cc1ccc(Cl)cc1)C(=O)O; d2Nal = N[C@H](Cc1ccc2ccccc2c1)C(=O)O; dCit = NC(=O)NCCC[C@@H](N)C(=O)O; d3Pal = N[C@H](Cc1cccnc1)C(=O)O
How the values were obtained:
bfGnRHR-2 = assay: Inhibition of GnRH-2-induced IP production, GH3 cells expressing bfGnRHR-2; assay type: cell-based, bullfrog
Description: (§1) GH3 cell lines were obtained from the Cell Line Bank at the Cancer Research Center, Seoul National University College of Medicine, located in Seoul, Republic of Korea. The GH3 cell lines were infected with retroviruses comprising genes encoding bfGnRHR-1, bfGnRHR-2, and bfGnRHR-3 which are bullfrog GnRH receptors, and rat GnRHR, and cell lines expressing each of these receptors were obtained. The GH3 cells expressing bfGnRHR-1, bfGnRHR-2, bfGnRHR-3, and rat GnRHR were cultured on 12-well plates. After 24 hours, the cells were cultured again for 24 hours in a media containing no inositol, to which H^3-myoinositol was added. The resultant cells were washed with buffer A (140 mM NaCl, 20 mM HEPES, 4 mM KCl, 8 mM D-Glucose, 1 mM MgCl2, 1 mM CaCl2, 1 mg/ml BSA) and then cultured in buffer A containing 10 mM LiCl at 37°C. for 30 minutes. Thereafter, they were treated with GnRH having a suitable concentration, cultured at 37° C. for another 30 minutes, and then the media was eliminated. The cells were treated with 10 mM of ice-cold formic acid to terminate the reaction, and the cell extracts were mixed with Dowex anionic exchange resins. These resins were washed with distilled water, IP was extracted with 1 M ammonium formate/0.1 M formic acid, and cpm (count per minute) was determined.

bfGnRHR-3 [1] = assay: Inhibition of GnRH-2-induced IP production, GH3 cells expressing bfGnRHR-3; assay type: cell-based, bullfrog
Description: as §1

rat GnRHR [2] = molecular target: T1, rat GnRHR (Rattus norvegicus, UniProt P30969); assay: Inhibition of GnRH-induced IP production, GH3 cells expressing rat GnRHR; assay type: cell-based; details: rat GnRH receptors
T1 construct: expressed in transfected cells; host or cells: GH3 cells, retrovirus-mediated infection
T1 sequence (P30969 1-327): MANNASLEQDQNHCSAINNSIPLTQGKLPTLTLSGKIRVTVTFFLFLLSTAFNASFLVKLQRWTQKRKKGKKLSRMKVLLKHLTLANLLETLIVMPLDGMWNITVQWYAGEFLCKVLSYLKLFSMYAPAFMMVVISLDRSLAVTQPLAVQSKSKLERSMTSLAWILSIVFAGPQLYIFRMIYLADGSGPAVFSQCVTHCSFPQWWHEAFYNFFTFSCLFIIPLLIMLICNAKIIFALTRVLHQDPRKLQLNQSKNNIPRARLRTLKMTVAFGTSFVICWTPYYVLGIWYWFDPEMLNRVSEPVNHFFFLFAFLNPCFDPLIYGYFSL
Description: as §1

Primate GnRH-2 receptor = assay: Inhibition of GnRH-2-induced c-fos-luc luciferase activity, cells expressing Primate GnRH-2 receptor; assay type: cell-based, Primates
Description: Complimentary DNA (cDNA) for a Primate GnRH-2 receptor was obtained from a CV-1 cell genome. […] Plasmids having Primate GnRH-2 receptors where transfected into CV-1 cells. To assay the activity of the receptor, c-fos-luc where a luciferase gene is fused with a c-fos promoter was co-transfected as a probe gene. After 48 hours from transfection, the cells were treated with GnRH-2 agonists and then the activity of luciferase was assayed (Seong et al., Endocrinology vol 144 2003, 454-466). In the same manner as in 2-3 above, Primate GnRH-2 receptors were co-transfected along with c-fos-luc reporter genes, and after 48 hours, GnRH-2 and GnRH-2 antagonists were treated thereinto at the same time and then the effect of GnRH-2 antagonists was observed. […] Log IC50 value by antagonists is an average value of experiments that were conducted independently three times. ND stands for “not detected” which means that there are no inhibitory functions.

bfGnRHR-3 [3] = assay: Ligand-receptor binding assay, I125-GnRH-2 competition, membranes of GH3 cells expressing bfGnRHR-3; parameters: species or system bullfrog; details: log of IC50 (negative values); competition with I125-GnRH-2, 4° C., 16 hours
Description: (§2) To determine the binding affinity between GnRH and GnRH receptors, GnRH-2 was radiolabeled with I^125. The GH3 cells expressing bfGnRHR-1, bfGnRHR-2, bfGnRHR-3, and rat GnRHR constructed in Example 2-3 above were cultured on 100-mm dishes. After 48 hours, the cells were homogenized to obtain cellular membranes, which were then dissolved in binding buffer (40 mM Tris, pH 7.4, 2 mM MgCl2). 20 μg of membrane proteins were reacted with I^125-GnRH-2 at 4° C. for 16 hours. […] After the reaction was completed, 1^125-GnRH-2 bound to the receptors was filtered using a Brandel harvester, and cpm was measured using a γ-counter.
The GH3 cells expressing bfGnRHR-3 obtained from Example 6-1 above were treated with l^125GnRH-2 and GnRH-2 agonists and antagonists at various concentrations to determine the binding affinity of GnRH-2 agonists and antagonists toward the receptors.

rat GnRHR [4] = molecular target: T1, rat GnRHR; assay: Ligand-receptor binding assay, I125-GnRH-2 competition, membranes of GH3 cells expressing rat GnRHR; details: log of IC50 (negative values); competition with I125-GnRH-2, 4° C., 16 hours; read-out: Binding affinity (log IC50 value) (converted)
Description: as §2, with “The GH3 cells expressing bfGnRHR-1, bfGnRHR-2, bfGnRHR-3, and rat GnRHR constructed in Example 2-3 above were cultured on 100-mm dishes.” left out

[5] = log of IC50 (negative values), half-maximal inhibition of IP production induced by GnRH-2 (1 nM, 10 nM elsewhere in the source)
[6] = reduction of IP production induced by 1 nM GnRH-2

- Log IC50 (bfGnRHR-2; [5]): −8.10 ± 0.08
- Log IC50 (bfGnRHR-3 [1]; [5]): −8.49 ± 0.11
- fold lower effect than Cetrorelix (rat GnRHR [2]): ~60 fold
- Log IC50 (Primate GnRH-2 receptor; log of IC50 (negative values), reporter c-fos-luc, GnRH-2-induced luciferase, average of three experiments, ND = not detected, no inhibitory functions): −5.74 ± 0.10
- Binding affinity (log IC50 value) (bfGnRHR-3 [3]): −11.73 ± 0.19
- IC50 (rat GnRHR [4]): 1.78 pM
Compound: CC(=O)N[C@H](Cc1ccc2ccccc2c1)C(=O)N[C@H](Cc1ccc(Cl)cc1)C(=O)N[C@H](Cc1cccnc1)C(=O)N[C@@H](CO)C(=O)N[C@@H](Cc1ccc(O)cc1)C(=O)N[C@H](CCCNC(N)=O)C(=O)N[C@@H](Cc1c[nH]c2ccccc12)C(=O)N[C@@H](Cc1ccc(O)cc1)C(=O)N1CCC[C@H]1C(=O)N[C@H](C)C(N)=O [Trptorelix-1, Ac-D2Nal-(4Cl)D-Phe-D-3Pal-Ser-Tyr-D-Cit-Trp-Tyr-Pro-DAlaNH2] (Ac-[d2Nal][dPhe(4-Cl)][d3Pal]SY[dCit]WYP[dA]-NH2)
- fold more sensitive than Cetrorelix (bfGnRHR-2; [6]): 100 fold
- IP production by antagonist alone (bfGnRHR-2; without GnRH-2): production of IP was not observed
- fold more sensitive than Cetrorelix (bfGnRHR-3 [1]; [6]): about 1000 fold
- IP production by antagonist alone (bfGnRHR-3 [1]; without GnRH-2): production of IP was not observed
- effect on luciferase activity induced by GnRH-2 (Primate GnRH-2 receptor; GnRH-2 and antagonist treated at the same time): reduced in a concentration-dependent manner

From patent US7285528B2, “Agonists and antagonists of gonadotropin-releasing hormone-2, and use thereof” (priority 2002, dated 2007)
